# In patent publication EP0528699B1, “Saishin N derivatives, process for their preparation and anti-ulcer agents containing them” (TOKYO TANABE COMPANY LIMITED, priority 1991, dated 1993):
# Tested on: Hydrochloric acid-Ethanol-Induced Ulcers
# Experiment: Hydrochloric acid-Ethanol-Induced Ulcers
# Assay type: in vivo, male Wister rats
# Conditions: Rattus norvegicus, intraduodenal, 3 h, Table 1; dose 20 mg/kg intraduodenally three hours before hydrochloric acid - 60% ethanol; read-out: Inhibition ratio(%)
# Experimental: (§1) Experiments on Hydrochloric acid-Ethanol-Induced Ulcers, Aspirin-Induced Ulcers, Water-Immersion stress-Induced Ulcers, Shay's Ulcers and Serotonin-Induced Ulcers were carried out using male Wister rats weighing about 200g in groups of six. Experiments on Ischemia-Reperfusion -Induced Gastric Lesions were carried out using male SD rats weighing about 250g in groups of six. Other than for the tests on Ischemia-Reperfusion-Induced Gastric Lesions Models, the test compounds were prepared by mixing thoroughly with polyethyleneglycol and 0.5% sodium carboxymethyl cellulose solution and emulsifying vigorously. Activities against respective ulcer models were evaluated by an inhibiting ratio obtained by dividing the difference between the ulceration indexes of the non-administered group and the test compound group by the non-administered group.
# To each rat which had been fasted for 24 hours was orally administered 0.5ml of a mixed solution of 150 mM hydrochloric acid - 60% ethanol per 100g of weight. Each rat was slaughtered after one hour, a length of ulcer formed at the fundus gland area of stomach was measured and ulceration index was calculated based on the length. The test compound was administered intraduodenally one hour or three hours before the administration of mixed solution of hydrochloric acid - 60% ethanol.
row,Compound,inhibition in vivo at 20 mg/kg
1,"CC(=O)OC1CC(C)C(=O)CC(C)(C)C1OC(C)=O (stereo not drawn) [AU117, 2,4-cis-4,5-diacetoxy-2,6,6-trimethylcycloheptan-1-one]",62%
2,"CC(=O)OC1C=C(C)C(=O)CC(C)(C)C1OC(=O)C=Cc1ccccc1 (centres unmarked) [AU207, 4-acetoxy-5-cinnamoyloxy-2,6,6-trimethyl-2-cyclohepten-1-one]",56%
3,"CC(=O)OC1C(OC(=O)C=Cc2ccccc2)C=C(C)C(=O)CC1(C)C (centres unmarked) [AU208, 5-acetoxy-4-cinnamoyloxy-2,6,6-trimethyl-2-cyclohepten-1-one]",39%
4,"CC1=CC(O)C(OC(=O)c2cccc(N)c2)C(C)(C)CC1=O (centres unmarked) [AU209, 5-(3-aminobenzoyloxy)-4-hydroxy-2,6,6-trimethyl-2-cyclohepten-1-one]",38%
5,"CC1=CC(OC(=O)c2cccc(N)c2)C(O)C(C)(C)CC1=O (centres unmarked) [AU210, 4-(3-aminobenzoyloxy)-5-hydroxy-2,6,6-trimethyl-2-cyclohepten-1-one]",26%
6,"CC1=CC(O)C(OC(=O)c2ccc([N+](=O)[O-])cc2)C(C)(C)CC1=O (centres unmarked) [AU211, 4-hydroxy-5-(4-nitrobenzoyloxy)-2,6,6-trimethyl-2-cyclohepten-1-one]",38%
7,"CC1=CC(O)C(OC(=O)c2ccc(N)cc2)C(C)(C)CC1=O (centres unmarked) [AU216, 5-(4-aminobenzoyloxy)-4-hydroxy-2,6,6-trimethyl-2-cyclohepten-1-one]",23%
8,"CC(=O)Oc1ccc(C(=O)OC2C=C(C)C(=O)CC(C)(C)C2O)cc1 (centres unmarked) [AU217, 4-(4-acetoxybenzoyloxy)-5-hydroxy-2,6,6-trimethyl-2-cyclohepten-1-one]",48%
9,"COC1C=C(C)C(=O)CC(C)(C)C1OC(=O)c1ccccc1C(=O)O (centres unmarked) [AU218, 5-(2-carboxybenzoyloxy)-4-methoxy-2,6,6-trimethyl-2-cyclohepten-1-one]",34%
10,"CC1=CC(OC(=O)c2ccc([N+](=O)[O-])cc2Cl)C(O)C(C)(C)CC1=O (centres unmarked) [AU219, 4-(2-chloro-4-nitrobenzoyloxy)-5-hydroxy-2,6,6-trimethyl-2-cyclohepten-1-one]",60%
11,"COC1C(OC(=O)c2ccccc2)C=C(C)C(=O)CC1(C)C (centres unmarked) [AU223, 4-benzoyloxy-5-methoxy-2,6,6-trimethyl-2-cyclohepten-1-one]",49%
12,"CC(=O)Nc1cccc(C(=O)OC2C(OC(C)=O)C=C(C)C(=O)CC2(C)C)c1 (centres unmarked) [AU224, 5-(3-acetamidobenzoyloxy)-4-acetoxy-2,6,6-trimethyl-2-cyclohepten-1-one]",47%
13,"CC1=CC(=O)C(OC(=O)c2ccccc2)C(C)(C)CC1=O (centres unmarked) [AU225, 5-benzoyloxy-2,6,6-trimethyl-2-cyclohepten-1,4-dione]",36%
14,"COC1C(O)C=C(C)C(OC(=O)c2ccccc2)CC1(C)C (centres unmarked) [AU227, 1-benzoyloxy-5-methoxy-2,6,6-trimethyl-2-cyclohepten-4-ol]",47%
15,"CC1=CC(OC(=O)c2ccc(N(C)C)cc2)C(O)C(C)(C)CC1=O (centres unmarked) [AU236, 4-(4-dimethylaminobenzoyloxy)-5-hydroxy-2,6,6-trimethyl-2-cyclohepten-1-one]",45%
16,"CC(=O)Nc1ccc(C(=O)OC2C=C(C)C(=O)CC(C)(C)C2O)cc1 (centres unmarked) [AU237, 4-(4-acetamidobenzoyloxy)-5-hydroxy-2,6,6-trimethyl-2-cyclohepten-1-one]",30%
17,"COC1C(OC(=O)c2ccc([N+](=O)[O-])cc2)C=C(C)C(=O)CC1(C)C (centres unmarked) [AU238, 5-methoxy-4-(4-nitrobenzoyloxy)-2,6,6-trimethyl-2-cyclohepten-1-one]",40%
18,"COC1C(OC(=O)c2ccc(N)cc2)C=C(C)C(=O)CC1(C)C (centres unmarked) [AU239, 4-(4-aminobenzoyloxy)-5-methoxy-2,6,6-trimethyl-2-cyclohepten-1-one]",41%
19,"CC1=CC(O)C(OC(=O)c2ccc(N)cc2N)C(C)(C)CC1=O (centres unmarked) [AU241, 5-(2,4-diaminobenzoyloxy)-4-hydroxy-2,6,6-trimethyl-2-cyclohepten-1-one]",37%

row,Compound,inhibition in vivo at 20 mg/kg
1,"CC1=CC(OC(=O)c2ccc(N)cc2N)C(O)C(C)(C)CC1=O (centres unmarked) [AU242, 4-(2,4-diaminobenzoyloxy)-5-hydroxy-2,6,6-trimethyl-2-cyclohepten-1-one]",60%
2,"COC1C=C(C)C(=O)CC(C)(C)C1OC(=O)Cc1csc(N)n1 (centres unmarked) [AU243, 5-(2-aminothiazol-4-yl) acetoxy-4-methoxy-2,6,6-trimethyl-2-cyclohepten-1-one]",29%
3,"CC1=CC(OC(=O)c2ccc(N)cc2)C2OC1(OCCO)CC2(C)C (centres unmarked) [AU249, 4-(4-aminobenzoyloxy)-1-(2-hydroxyethoxy)-2,6,6-trimethyl-8-oxabicyclo [3.2.1] oct-2-ene]",65%
4,"CC1CC(O)C2OC1(OC(=O)c1ccc([N+](=O)[O-])cc1)CC2(C)C (stereo not drawn) [AU250, 2,4-cis-1-(4-nitrobenzoyloxy):2,6,6-trimethyl-8-oxabicyclo [3.2.1] octan-4-ol]",36%
5,"CC1CC(O)C2OC1(OC(=O)c1ccc(N)cc1)CC2(C)C (stereo not drawn) [AU251, 2,4-cis-1-(4-aminobenzoyloxy)-2,6,6-trimethyl-8-oxabicyclo [3.2.1] octan-4-ol]",30%
6,"CC1CC(O)C2OC1(OC(=O)c1ccccc1)CC2(C)C (stereo not drawn) [AU252, 2,4-cis-1-benzoyloxy-2,6,6-trimethyl-8-oxabicyclo [3.2.1] octan-4-ol]",31%
7,"CC1=CC(OC(=O)C=Cc2ccc(N)cc2)C(O)C(C)(C)CC1=O (centres unmarked) [AU401, 4-(4-aminocinnamoyloxy)-5-hydroxy-2,6,6-trimethyl-2-cyclohepten-1-one]",49%
8,"CC1=CC(OC(=O)c2ccco2)C(O)C(C)(C)CC1=O (centres unmarked) [AU403, 4-(2-furoyloxy)-5-hydroxy-2,6,6-trimethyl-2-cyclohepten-1-one]",31%
9,"COC1C=C(C)C(=O)CC(C)(C)C1OC(=O)c1ccc(N)c(N)c1 (centres unmarked) [AU410, 5-(3,4-diaminobenzoyloxy)-4-methoxy-2,6,6-trimethyl-2-cyclohepten-1-one]",75%
10,"COc1cc(C=CC(=O)OC2C(O)C=C(C)C(=O)CC2(C)C)ccc1O (centres unmarked) [AU414, 4-hydroxy-5-(4-hydroxy-3-methoxycinnamoyloxy)-2,6,6-trimethyl-2-cyclohepten-1-one]",89%
11,"COC1C=C(C)C(=O)CC(C)(C)C1OC(=O)c1ccc2nc(N)[nH]c2c1 (centres unmarked) [AU415, 5-(2-aminobenzimidazolyl-5-carbonyloxy)-4-methoxy-2,6,6-trimethyl-2-cyclohepten-1-one]",30%
12,"COc1cc(C=CC(=O)OC2C=C(C)C(=O)CC(C)(C)C2O)ccc1O (centres unmarked) [AU416, 5-hydroxy-4-(4-hydroxy-3-methoxycinnamoyloxy)-2,6,6-trimethyl-2-cyclohepten-1-one]",72%
13,"COc1cc(C=CC(=O)OC2C=C(C)C3(OC)CC(C)(C)C2O3)ccc1O (centres unmarked) [AU417, 4-(4-hydroxy-3-methoxycinnamoyloxy)-1-methoxy-2,6,6-trimethyl-8-oxabicyclo [3.2.1] oct-2-ene]",69%
14,"CC1=CC(O)C(OC(=O)c2nc[nH]c2C)C(C)(C)CC1=O (centres unmarked) [AU504, 4-hydroxy-5-(5-methyl-4-imidazolylcarbonyloxy)-2,6,6-trimethyl-2-cyclohepten-1-one]",39%
15,"CC1=CC(OC(=O)C=Cc2ccc(O)cc2)C(O)C(C)(C)CC1=O (centres unmarked) [AU506, 5-hydroxy-4-(4-hydroxycinnamoyloxy)-2,6,6-trimethyl-2-cyclohepten-1-one]",81%
16,"COC1C=C(C)C(=O)CC(C)(C)C1OC(=O)c1ccc2nc[nH]c2c1 (centres unmarked) [AU507, 5-(5-benzimidazolylcarbonyloxy)-4-methoxy-2,6,6-trimethyl-2-cyclohepten-1-one]",63%
17,"COC12CC(C)(C)C(O1)C(OC(=O)C=Cc1ccc(O)cc1)C=C2C (centres unmarked) [AU508, 4-(4-hydroxycinnamoyloxy)-1-methoxy-2,6,6-trimethyl-8-oxabicyclo [3.2.1] oct-2-ene]",82%
18,"COc1ccc(COC2C=C(C)C(=O)CC(C)(C)C2O)cc1 (centres unmarked) [AUM09, 5-hydroxy-4-(4-methoxybenzyloxy)-2,6,6-trimethyl-2-cyclohepten-1-one]",17%

# Tested on: Water-Immersion stress-Induced Ulcers
# Experiment: Water-Immersion stress-Induced Ulcers
# Assay type: in vivo, male Wister rats
# Conditions: Rattus norvegicus, po, 10 h; dose 20 mg/kg orally 10 minutes before the exposure to stress; read-out: Water-Immersion Stress, inhibiting ratio
# Experimental: as §1
# Each rat which had been fasted for 15 hours was immobilized in a stress cage and immersed to chest depth in a water bath at 21°C. Each rat was slaughtered after 10 hours, a length of ulcer formed at the fundus gland area of stomach was measured and ulceration index was calculated based on the length. The test compound was administered orally 10 minutes before the exposure to stress.
# (§2) The results of Aspirin-Induced Ulcers, Water-immersion stress-Induced Ulcers, Shay's Ulcers, Serotonin-induced Ulcers and Ischemia-Reperfusion-Induced Gastric lesions are shown in Table 3.
row,Compound,inhibition in vivo at 20 mg/kg
1,"CC1=CC(OC(=O)c2ccc(N)cc2)C2OC1(OCCO)CC2(C)C (centres unmarked) [AU249, 4-(4-aminobenzoyloxy)-1-(2-hydroxyethoxy)-2,6,6-trimethyl-8-oxabicyclo [3.2.1] oct-2-ene]",33%
2,"COc1cc(C=CC(=O)OC2C(O)C=C(C)C(=O)CC2(C)C)ccc1O (centres unmarked) [AU414, 4-hydroxy-5-(4-hydroxy-3-methoxycinnamoyloxy)-2,6,6-trimethyl-2-cyclohepten-1-one]",41%

# Tested on: Serotonin-Induced Ulcers
# Experiment: Serotonin-Induced Ulcers
# Assay type: in vivo, male Wister rats
# Conditions: Rattus norvegicus, 4.5 h; dose 20 mg/kg intraduodenally 30 minutes before Serotonin creatinine sulfate 30 mg/kg subcutaneously; read-out: Serotonin, inhibiting ratio
# Experimental: as §1
# To each rat which had been fasted for 24 hours, 30 mg/kg of a solution of serotonin creatinine sulfate in a saline solution was administered subcutaneously. Each rat was then slaughtered after 4 and a half hours and area of gastric mucosal lesion formed facing the center line of greater curvature of the corpus ventriculi of stomach was measured and ulceration index was calculated based on the area. The test compound was administered intraduodenally 30 minutes before the administration of the Serotonin creatinine sulfate.
# as §2
row,Compound,inhibition in vivo at 20 mg/kg
1,"CC(=O)OC1CC(C)C(=O)CC(C)(C)C1OC(C)=O (stereo not drawn) [AU117, 2,4-cis-4,5-diacetoxy-2,6,6-trimethylcycloheptan-1-one]",60%
2,"CC1=CC(OC(=O)C=Cc2ccc(N)cc2)C(O)C(C)(C)CC1=O (centres unmarked) [AU401, 4-(4-aminocinnamoyloxy)-5-hydroxy-2,6,6-trimethyl-2-cyclohepten-1-one]",68%
